In the NIST ThermoML archive (doi:10.1016/j.jct.2011.05.003):
Numbers after ± are expanded uncertainties.

Details: 101.33 kPa, Liquid; for speed of sound: Sing-around technique in a fixed-path interferometer; for mass density: Vibrating tube method

Work on `CCCCCC(C)=O` [2-heptanone] yielded a speed of sound (293.15 K) of 1281.9 ± 1.2 m/s, a mass density (293.15 K) of 815.433 ± 0.24 kg/m3 and a speed of sound (298.15 K) of 1262.5 ± 1.2 m/s. For the same compound, the mass density (298.15 K) was 811.139 ± 0.24 kg/m3, the speed of sound (303.15 K) was 1244.1 ± 1.2 m/s and the mass density (303.15 K) was 806.827 ± 0.24 kg/m3.

Work on `CCCCNCCCC` [dibutylamine] yielded a speed of sound (293.15 K) of 1261.2 ± 0.83 m/s, a mass density (293.15 K) of 759.529 ± 0.16 kg/m3 and a speed of sound (298.15 K) of 1241.4 ± 0.82 m/s. It also gave a mass density (298.15 K) of 755.577 ± 0.16 kg/m3, a speed of sound (303.15 K) of 1222.2 ± 0.82 m/s and a mass density (303.15 K) of 751.407 ± 0.16 kg/m3.

In the case of `CCCNCCC` [dipropylamine], the speed of sound (293.15 K) is reported as 1209.4 ± 1.2 m/s, the mass density (293.15 K) is reported as 738.259 ± 0.25 kg/m3 and the speed of sound (298.15 K) is reported as 1188 ± 1.2 m/s. It also gave a mass density (298.15 K) of 733.81 ± 0.25 kg/m3 and a speed of sound (303.15 K) of 1167.6 ± 1.2 m/s.

Work on `CCN(CC)CC` [triethylamine] yielded a speed of sound (293.15 K) of 1132.5 ± 0.8 m/s, a mass density (293.15 K) of 727.333 ± 0.17 kg/m3 and a speed of sound (298.15 K) of 1110.9 ± 0.8 m/s. The mass density (298.15 K) was 722.729 ± 0.17 kg/m3, the speed of sound (303.15 K) was 1090.7 ± 0.78 m/s and the mass density (303.15 K) was 718.092 ± 0.17 kg/m3.
